# Patent publication EP0330218B1, “Inhibitors of lysyl oxidase” (MERRELL DOW PHARMACEUTICALS INC., priority 1988, dated 1989)
# Biological target: T1, Lysyl oxidase (Bos taurus, UniProt P33072)
# T1 construct: The supernatant with lysyl oxidase activity is saved; from tissue; host or cells: bovine aorta (4 M urea extract)
# T1 sequence (P33072 170-418): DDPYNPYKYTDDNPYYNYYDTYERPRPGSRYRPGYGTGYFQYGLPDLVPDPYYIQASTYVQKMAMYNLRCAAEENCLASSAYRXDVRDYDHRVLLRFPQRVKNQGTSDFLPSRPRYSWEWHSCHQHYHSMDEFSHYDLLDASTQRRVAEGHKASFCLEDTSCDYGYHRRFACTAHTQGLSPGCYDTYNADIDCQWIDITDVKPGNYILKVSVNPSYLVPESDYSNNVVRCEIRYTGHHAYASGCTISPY
# Experiment: Lysyl oxidase inhibition assay (fluorometric, cadaverine substrate, homovanillic acid/horseradish peroxidase)
# Assay type: biochemical
# Conditions: lysyl oxidase preparation from bovine aorta, 10 minutes at 55°C, borate buffer pH = 8.2, read-out: IC₅₀
# Method: Lysyl oxidase preparation is obtained from bovine aorta by the procedures modified from M. A. Williams and H. M. Kagan, Anal. Biochem. 149, 430 - 437 (1985) and H. M. Kagan and K. A. Sullivan, Methods in Enzyml. 82, 637 - 650 (1982). The aorta is obtained fresh on the day of the enzyme preparation and is maintained at 4°C for the duration of its use in the experiments. The aorta is ground fine and is homogenized for 90 seconds in buffer (2.5 ml of a buffer consisting of 16 mM potassium phosphate and 1 mM phenylmethylsulfonyl fluoride/g of tissue) with 0.15 M NaCl added, then the mixture is centrifuged (20 minutes at 11,000 x g). The homogenization followed by centrifugation procedure is repeated with buffer plus 0.15 M NaCl, buffer alone, and buffer plus 1 M urea. After homogenization in 1 M urea, the mixture is stirred for 1 hour prior to centrifugation. The resulting pellet is homogenized in buffer plus 4 M urea, stirred for 18 hours, and centrifuged. The supernatant with lysyl oxidase activity is saved. The tissue is homogenized in buffer plus 4 M urea, stirred overnight, and centrifuged twice more. The supernatants with lysyl oxidase activity are saved.
# The assay is adopted from that of P. C. Trackman, et al., Anal. Biochem. 113, 336 - 342 (1981). Each assay consists of two tubes, one that contains 0.2 mM β-aminopropionitrile, BAPN, from the start and one to which BAPN is added to quench the reaction. Lysyl oxidase preparation (0.150 ml), urea (0.300 ml, 4 M), buffer (0.930 ml, 200mM borate at pH = 8.2), homovanillic acid (0.020 ml of 50 mM solution), and horseradish peroxidase (0.010 ml of Sigma Type II at 5 mg/ml protein) are incubated for 2 minutes at 55°C in a test tube. Cadaverine (0.100 ml of 150 mM) and test compound, if any, is added and the incubation continued at 55°C for an additional 10 minutes. The test tubes containing this mixture are then cooled in a ice bath after adding BAPN to any tubes not containing it. The difference in fluorescence (excitation 315 nm and emission 425 nm) between corresponding tubes that received BAPN at 0 minutes and at 10 minutes is a measure of enzyme activity. A standard curve to determine the amount of cadaverine converted by lysyl oxidase is prepared as follows. Assay mixtures containing BAPN are made up as described and known amounts of hydrogen peroxide are added simultaneously with cadaverine and the fluorescence changes after 10 minutes reaction are determined.
# Using this method the lysyl oxidase inhibiting activity expressed as IC₅₀ (inhibitory concentration), that is the concentration of test compound required to inhibit the enzyme activity by 50 per cent, was determined for various compounds of this invention.
row,IC50,Structure (SMILES)
1,1 nM,NC/C(=C/F)c1cccs1 [(Z)-2-(2-Thienyl)-3-fluoroallylamine]
2,10 nM,CC(C)C/C(=C\F)CN [(E)-2-Isobutyl-3-fluoroallylamine]
3,100 nM,CCCCCCCCCCC/C(=C\F)CN [(E)-2-Undecyl-3-fluoroallylamine]
4,0.1 nM,NC/C(=C/F)CCc1ccc(F)cc1 [(E)-2-(4-Fluorophenethyl)-3-fluoroallylamine]
5,0.1 nM,"COc1ccc(CCC/C(=C\F)CN)cc1OC [(E)-2-(3,4-Dimethoxyphenylpropyl)-3-fluoroallylamine]"
6,100 nM,"COc1ccc(/C(=C\F)CN)cc1OC [(E)-2-(3,4-Dimethoxyphenyl)-3-fluoroallylamine]"
7,100 nM,CC(C)C/C(=C\Cl)CN [(E)-2-Isobutyl-3-chloroallylamine]
8,100 nM,NC/C(=C/Cl)c1ccccc1 [(E)-2-Phenyl-3-chloroallylamine]
9,0.1 nM,NC/C(=C\F)CSc1ccccc1 [(E)-2-(Thiophenoxymethyl)-3-fluoroallylamine]
10,10 nM,NC/C(=C/Cl)CCc1ccccc1 [(E)-2-Phenethyl-3-chloroallylamine]
11,1000 nM,"CCNC/C(=C/F)c1ccc(OC)c(OC)c1 [(E)-N-Ethyl-2-(3,4-dimethoxyphenyl)-3-fluoroallylamine]"
12,1 nM,NC/C(=C/F)c1ccccc1 [(E)-2-Phenyl-3-fluoroallylamine]
13,1 nM,"NC/C(=C/F)COc1ccc(Cl)c(Cl)c1 [(Z)-2-(3,4-Dichlorophenoxymethyl)-3-fluoroallylamine]"
